Laboratory results from patent US8829014B2, “Thiazole and thiophene analogues, and their use in treating autoimmune diseases and cancers” (Board of Supervisors of Louisiana State University and …, priority 2006, dated 2014).

Assays:
carageenan-induced edema = assay: Carrageenan-induced rat paw edema test (anti-inflammatory activity); format: in vivo, Sprague-Dawley rats; design: % Protection: concentration or dose not given beside the values; settings: carrageenan-induced rat paw edema, defined in Example 397; for inhibition in vivo at 50 mg/kg: Rattus norvegicus, po, 3 h, read-out: % Protection
How it was run: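 Sprague-Dawley rats (male and female, 150-250 g), fasted 18 h, given compound orally at 50 mg/kg in 0.1% sodium CMC (alternatively i.v., s.c. or i.p.). 1% carrageenan injected sub-plantar in right hind paw 1 h later. Paw displacement read again 3 h later; % protection = [(Control−Test)/Control]×100 versus saline control.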

AP-1 = AP-1 inhibitor screen: basal AP-1-dependent luciferase expression in HEK/AP-1 cell line; format: cell-based; settings: for inhibition at 1 µM: AP1; for inhibition at 1 µM / AP-1 inhibition @ 1 uM: determined as described in Example 398
Text: (§1) Development of NF-κB and AP-1 Screens: Two HEK293 cell lines were purchased from Panomics. One cell line was stably transfected with a plasmid in which luciferase expression is regulated by six copies of the NF-κB transcriptional element (5′-[…]-3′); and the other cell line was stably transfected with a plasmid in which luciferase expression is regulated by three copies of the AP-1 transcriptional element (TGACTAA). To test the biological activity of the promoters, the HEK/NF-κB cell line was stimulated with TNF-α (20 ng/ml) for 24 hours, and the HEK/AP-1 cell line was stimulated with PMA (10 ng/ml) for 24 hours.
HEK cells were stably transfected with a plasmid expressing luciferase under the control of the AP-1 promoter. The transfected cells were plated on a 96-well plate for 24 hr. Then 1.0 μM of each compound in DMSO (0.3%) was added to triplicate wells and incubated for 48 hr. DMSO (0.3%) was added to one set of triplicate wells as a control. Luciferase activity was determined using Promega's Brite-Glo kit, and the mean for each sample was normalized to that for DMSO.
Screening was carried out as described above, monitoring the compounds' effects on basal AP-1-dependent luciferase expression. Each dose-response experiment was carried out in triplicate and repeated between two and four times.

NF-κB = NF-κB inhibitor screen: basal NF-κB-dependent luciferase expression in HEK/NF-κB cell line; format: cell-based; settings: for inhibition at 1 µM / NFkB inhibition @ 1 uM: determined as described in Example 398; for inhibition at 1 µM: read-out: NFkB inhibition @ 1 uM
Text: as §1, with “hours. […] In addition, a pyrimidine carboxyimide that had previously been shown (ref. 58) to be an inhibitor of transcription mediated by NF-κB and AP-1 reduced luciferase activity by approximately 40% in each of the NF-κB and AP-1 cell lines.” for “hours.”
The above two assays analyzed the effects of the compounds on post-transcriptional gene regulation, which is known to play a key role in cancer and inflammation. By contrast, the NF-κB assay and the following assay (AP-1) test whether the compounds act at the transcriptional level. Thirty-nine representative compounds were screened in an HEK/NF-κB cell line. HEK cells were stably transfected with a plasmid expressing luciferase under the control of the NF-κB promoter. These transfected cells were plated on a 96-well plate. As above, initial screening was carried out at 1.0 μM by adding compound in DMSO (0.3%) twenty-four hours after plating. Each compound was added to each of triplicate wells. DMSO (0.3%) was added to one set of wells as a control. Luciferase activity was determined using Promega's Brite-Glo kit, and the mean for each sample was normalized to that for DMSO.
The fourteen representative compounds identified in the eIF4E screen as interesting (Numbered 2, 3, 4, 6, 8, 11, 15, 20, 21, 24, 25, 32, 33, and 35) were then tested for luciferase activity in a six-point dose response (10 nM, 33 nM, 100 nM, 330 nM, 1000 nM, and 3300 nM). Screening was carried out as described above by monitoring the effects of the compounds on basal NF-κB-dependent luciferase expression. Each dose was used out in triplicate, and repeated between two and four times. Results were normalized by the average expression level at the lowest concentration level, as described above.

Compound | inhibition in vivo at 50 mg/kg (carageenan-induced edema) [%] | inhibition at 1 µM (AP-1) [%] | inhibition at 1 µM (NF-κB) [%] | % Protection (carageenan-induced edema) [%] | AP-1 inhibition @ 1 uM (AP-1) | NFkB inhibition @ 1 uM (NF-κB) | basal AP-1-dependent luciferase, six-point dose response (AP-1; 10 nM-3300 nM (FIG. 14)) | inhibition of basal NF-κB-dependent luciferase expression (NF-κB; 3.3 μM (FIG. 12))
Cc1nc(Nc2ccccc2)sc1-c1nc2ccccc2c(=O)n1-c1ccccc1 [Example 157, 2-(4-Methyl-2-phenylamino-thiazol-5-yl)-3-phenyl-3H-quinazolin-4-one] | 12 | 16 | 25 | – | – | – | – | –
Cc1nc(Nc2ccc(Cl)cc2)sc1-c1nc2ccccc2c(=O)n1-c1ccccc1 [Example 158, 2-[2-(4-Chlorophenylamino)-4-methyl-thiazol-5-yl]-3-phenyl-3H-quinazolin-4-one] | 4 | -20 | -9 | – | – | – | – | –
O=c1c2ccccc2nc(-c2sc(Nc3ccccc3)nc2-c2ccccc2)n1-c1ccccc1 [Example 161, 3-Phenyl-2-(4-phenyl-2-phenylamino-thiazol-5-yl)-3H-quinazolin-4-one] | 60 | 7 | 80 | – | – | – | – | –
O=C(Nc1nc(-c2ccccc2)c(-c2nc3ccccc3c(=O)n2-c2ccccc2)s1)c1ccccc1 [Example 162] | – | – | – | 87 | 17 | 58 | – | –
Cc1ccc(C(=O)Nc2nc(-c3ccccc3)c(-c3nc4ccccc4c(=O)n3-c3ccccc3)s2)cc1 [Example 163, 4-Methyl-N-[5-(4-oxo-3-phenyl-3,4-dihydroquinazolin-2-yl)-4-phenyl-thiazol-2-yl]-benzamide] | 77 | 68 | 88 | – | – | – | – | –
O=c1c2ccccc2nc(-c2sc(Nc3ccc(Cl)cc3)nc2-c2ccccc2)n1-c1ccccc1 [Example 165, 2-[2-(4-Chloro-phenylamino)-4-phenyl-thiazol-5-yl]-3-phenyl-3H-quinazolin-4-one] | 87 | 27 | -47 | – | – | – | substantial activity at submicromolar concentrations | –
CNc1nc(C)c(-c2nc3ccccc3c(=O)n2-c2ccccc2C)s1 [Example 168] | – | – | – | 35 | 67 | 16 | – | –
Cc1ccccc1-n1c(-c2sc(Nc3ccccc3)nc2C)nc2ccccc2c1=O [Example 169, 2-(4-Methyl-2-phenylamino-thiazol-5-yl)-3-o-tolyl-3H-quinazolin-4-one] | 42 | 60 | 21 | – | – | – | – | –
CCOC(=O)Nc1nc(-c2ccccc2)c(-c2nc3ccccc3c(=O)n2-c2ccccc2C)s1 [Example 171, [5-(4-Oxo-3-o-tolyl-3,4-dihydro-quinazolin-2-yl)-4-phenyl-thiazol-2-yl]-carbamic acid ethyl ester] | 52 | 52 | 23 | – | – | – | – | –
Cc1cccc(-n2c(-c3sc(Nc4ccc(Cl)cc4)nc3-c3ccccc3)nc3ccccc3c2=O)c1 [Example 189, 2-[2-(4-Chloro-phenylamino)-4-phenyl-thiazol-5-yl]-3-m-tolyl-3H-quinazolin-4-one] | 38 | 83 | -4 | – | – | – | – | –
Cc1ccc(-n2c(-c3sc(Nc4ccc(Cl)cc4)nc3C)nc3ccccc3c2=O)cc1 [Example 192, 2-[2-(4-Chlorophenylamino)-4-methyl-thiazol-5-yl]-3-p-tolyl-3H-quinazolin-4-one] | 37 | 2 | 12 | – | – | – | – | –
CCOC(=O)Nc1nc(-c2ccccc2)c(-c2nc3ccccc3c(=O)n2-c2ccc(C)cc2)s1 [Example 193, [5-(4-Oxo-3-p-tolyl-3,4-dihydro-quinazolin-2-yl)-4-phenyl-thiazol-2-yl]-carbamic acid ethyl ester] | 31 | 11 | 2 | – | – | – | – | –
Cc1ccc(-n2c(-c3sc(Nc4ccc(Cl)cc4)nc3-c3ccccc3)nc3ccccc3c2=O)cc1 [Example 200, 2-[2-(4-Chloro-phenylamino)-4-phenyl-thiazol-5-yl]-3-p-tolyl-3H-quinazolin-4-one] | 56 | 2 | -16 | – | – | – | – | –
CNc1nc(-c2ccccc2)c(-c2nc3ccccc3c(=O)n2-c2ccccc2OC)s1 [Example 205, 2-(2-Methylamino-4-phenyl-thiazol-5-yl)-3-(2-methoxyphenyl)-3H-quinazolin-4-one] | 56 | 90 | 61 | – | – | – | – | –
COc1cccc(-n2c(-c3sc(Nc4ccccc4)nc3-c3ccccc3)nc3ccccc3c2=O)c1 [Example 213, 3-(3-methoxyphenyl)-2-(4-phenyl-2-phenylamino-thiazol-5-yl)-3H-quinazolin-4-one] | 38 | 33 | 35 | – | – | – | – | –
COc1ccc(-n2c(-c3sc(Nc4ccc(Cl)cc4)nc3C)nc3ccccc3c2=O)cc1 [Example 217, 2-[2-(4-Chlorophenylamino)-4-methyl-thiazol-5-yl]-3-(4-methoxyphenyl)-3H-quinazolin-4-one] | 50 | -43 | -38 | – | – | – | – | –
CCOC(=O)Nc1nc(-c2ccccc2)c(-c2nc3ccccc3c(=O)n2-c2ccc(OC)cc2)s1 [Example 218, [5-(4-Oxo-3-(4-methoxyphenyl)-3,4-dihydro-quinazolin-2-yl)-4-phenyl-thiazol-2-yl]-carbamic acid ethyl ester] | 20 | 24 | 22 | – | – | – | – | –
COc1ccc(-n2c(-c3sc(Nc4ccccc4)nc3-c3ccccc3)nc3ccccc3c2=O)cc1 [Example 221, 3-(4-Methoxyphenyl)-2-(4-phenyl-2-phenylamino-thiazol-5-yl)-3H-quinazolin-4-one] | 85 | 18 | 79 | – | – | – | – | –
COc1ccc(-n2c(-c3sc(NC(=O)c4ccccc4)nc3-c3ccccc3)nc3ccccc3c2=O)cc1 [Example 222, N-[5-(4-Oxo-3-(4-methoxyphenyl)-3,4-dihydro-quinazolin-2-yl)-4-phenyl-thiazole-2-yl]benzamide] | 24 | 0 | 15 | – | – | – | – | –
Cc1nc(Nc2ccc(Cl)cc2)sc1-c1nc2ccccc2c(=O)n1-c1ccccc1Cl [Example 230, 2-[2-(4-Chlorophenylamino)-4-methyl-thiazol-5-yl]-3-(2-chloro-phenyl)-3H-quinazolin-4-one] | 58 | 21 | 60 | – | – | – | – | –
CCOC(=O)Nc1nc(C)c(-c2nc3ccccc3c(=O)n2-c2ccc(Cl)cc2)s1 [Example 242, (4-Methyl-5-(4-oxo-3-(4-chloro-phenyl)-3,4-dihydro-quinazolin-2-yl)-thiazol-2-yl)-carbamic acid ethyl ester] | 65 | 12 | 53 | – | – | – | – | about 50%
Cc1nc(Nc2ccccc2)sc1-c1nc2ccccc2c(=O)n1-c1ccc(Cl)cc1 [Example 245, 2-(4-Methyl-2-phenylamino-thiazol-5-yl)-3-(4-chloro-phenyl)-3H-quinazolin-4-one] | 72 | 82 | 79 | – | – | – | – | –
